Experimental data taken from patent US6995281B2, “Methods for selectively removing counterions from compounds and compounds derived from such methods” (Pfizer, Inc., priority 2003, dated 2006).
Structures can show the parent of a compound that is named as a salt.

Assays:
Type in all cases: physicochemical
[1] = Stability of free zwitterion samples at different pH by ion pairing gradient HPLC (Example 6, Table 2); conditions: summary of Table 2
Procedure: Amberlite IRA400 (Cl) resin was rinsed with 3M HCl, water, and then 3M NaOH. Aliquots were 100 ml per 10 g of resin. This procedure was repeated 3 times in order to clean the resin and in order to generate the OH form. A final rinse with water was carried out until the conductivity of the eluting water was 2 μS. The resin was then used to titrate 40 ml of a 50 mg/ml solution of S-[2-[(1-Iminoethyl)amino]ethyl]-2-methyl-L-cysteine dihydrochloride. The concentration is expressed in terms of zwitterion equivalents. Aliquots were taken throughout the titration, filtered and analyzed by HPLC. Subsamples of the aliquots were saved for a second HPLC analysis 1 week after the titration was performed in order to assess the stability of the samples. Additional aliquots were taken for Cl analysis using an ion selective electrode. The pH was also monitored throughout the titration. HPLC analyses were performed using an ion pairing gradient method. […] HPLC Method • Pump A: 20 mM KH2PO4, 10 mM Pentane sulfonic acid, adjusted to pH=3 with phosphoric acid • Pump B: Acetonitrile • Gradient: 0% B at 0 min, 26% B at 15 min, 0% B at 15.1 min • Column: YMC ODS-AQ 120 A, 5 μm, 2.6×150 mm • Wavelength=205 nm

[2] = Pseudo-titration in water with IRA-400(OH) anion exchange resin, samples assayed by HPLC (Example 3); conditions: not a true titration curve
Procedure: 60 g of Amberlite IRA400 (OH) resin (a strongly anionic quaternary ammonium polystyrene resin, about 16–50 mesh, available from Rohm & Haas, Philadelphia, Pa.,) was prewashed with 4.7 percent (by weight) ammonium hydroxide (50 ml of 28 percent ammonium hydroxide, 250 ml deionized water), followed by extensive washing with deionized water. The final conductivity was 6.1 μS.
Samples containing about 0.9 g of S-[2-[(1-Iminoethyl)amino]ethyl]-2-methyl-L-cysteine di-hydrochloride in 142 ml HCl/water solution, were concentrated on a rotary evaporator at 60° C. to an oil. To the oil, diluted to 60 ml with deionized water, was added aliquots of 0.5 g of washed anion exchange resin while stirring. At five minutes after each aliquot of resin was added, the solution pH was measured and a sample removed through a syringe filter. A total of 9 g of anion exchange resin was added. The final pH was 10.8. The resin was removed by filtration and the filtrate was concentrated to an oil by rotary evaporation at 60° C.; no solids formed. The starting material, final filtrate and all intermediate samples were assayed by HPLC and ion chromatography for chloride.
The diamond (solid line) is pH and square (dashed line) is S-[2-[(1-Iminoethyl)amino]ethyl]-2-methyl-L-cysteine (percent initial, by ion chromatography). […] The diamond (solid line) is pH and triangle (broken line) is chloride (by ion chromatography).
These curves are not true titration curves since samples were withdrawn during the progress of the reaction, and since true equilibrium was not attained before the increments of resin were added. Nevertheless, the graphs of FIG. 2 and FIG. 3 illustrate the expected trends. As resin is added to the S-[2-[(1-Iminoethyl)amino]ethyl]-2-methyl-L-cysteine solution the pH rises with change in slope around pH's of 2, 9 and 11. The pH's of slower rise are representative of the pK's of the carboxylic acid, amine and amidine functional groups, respectively. Above a pH of 10, the S-[2-[(1-Iminoethyl)amino]ethyl]-2-methyl-L-cysteine concentration in solution decreases. […]

[3] = HPLC analysis after removal of excess HCl with anion exchange resin (Example 4); conditions: pH raised from 1.04 to 2.5 with Amberlite 400 (OH) resin
Procedure: To 3.3 g of sample containing around 305 mg/ml S-[2-[(1-Iminoethyl)amino]ethyl]-2-methyl-L-cysteine dihydrochloride and around 0.2 eq excess HCl, was added 16.7 g of deioinized water. The pH was 1.04. To 14 ml of this solution, prewashed Amberlite 400 (OH) resin was added to obtain a ph of 2.5. The anion exchange treatment lightened the color of the solution from light yellow to water white. The resin was removed by filtration and the starting material and filtrate product were analyzed by chloride titration and HPLC.

Row | pH of slower rise representative of the pK of the amidine group [2] | pH of slower rise representative of the pK of the amine group [2] | pH of slower rise representative of the pK of the carboxylic acid group [2] | SMILES | Degradation when made basic (HPLC) [1] | Qualitative HPLC analysis of starting material and product [3]
1 | ~11 | ~9 | ~2 | CC(=N)NCCSC[C@](C)(N)C(=O)O [S-[2-[(1-Iminoethyl)amino]ethyl]-2-methyl-L-cysteine] | degradation is not immediate but instead occurs over a period of days | 
2 |  |  |  | CC(=N)NCCSC[C@](C)(N)C(=O)O [Example 1, S-[2-[(1-Iminoethyl)amino]ethyl]-2-methyl-L-cysteine, dihydrochloride] |  | no new peaks and no increase in impurities
